One may read the IC50 as the midpoint of a concentration-inhibition curve. A lower IC50 goes with greater potency.

These results are taken from patent US11584801B2, “Anti-5T4 antibodies and antibody-drug conjugates” (Byondis B.V., priority 2015, dated 2023).

For one data set, the system named is MDA-MB-468 cells. The data set can be described thus: In vitro cytotoxicity in MDA-MB-468 cells. Type of data set: cell-based, human.
Another data set relates to PA-1 cells. The data set is described as follows: In vitro cytotoxicity in PA-1 cells. The format is cell-based, human.
Data set [1] in a line: Hydrophobicity by analytical HIC. The format is physicochemical. Here is the method: For analytical HIC, 5-10 μl of sample (1 mg/ml) was injected onto a TSKgel Butyl-NPR column (4.6 mm ID×3.5 cm L, Tosoh Bioscience, cat. nr. 14947). The elution method consisted of a linear gradient from 100% Buffer A (25 mM sodium phosphate, 1.5 M ammonium sulphate, pH 6.95) to 100% of Buffer B (25 mM sodium phosphate, pH 6.95, 20% isopropanol) at 0.4 ml/min over 20 minutes. A Waters Acquity H-Class UPLC system equipped with PDA-detector and Empower software was used. Absorbance was measured at 214 nm and the retention time of ADCs was determined.

Regarding “Rituximab-vc-seco-DUBA: non-binding control ADC”, in the data set with MDA-MB-468 cells, the IC50 was determined as 32.9 nM and the “MDA-MB-468 Efficacy” value is 91%. The IC50 in the data set on PA-1 cells came out at 8.32 nM.

B1: 899 chimeric (conjugate)
VH: QSVEESGGRLVTPGTPLTLTCTVSGFSLSSYTMSWVRQACGKGLEYIGIISSSDGTWYANWVKGRFTISKTSTTVDLKMTSLTTEDTATYFCARDGTGNKYYTWDRLDLWGQGTLVTVSS
VL: NIVMTQTPSPVSGAVGGTVTINCQASQSIYNELSWYQQKPGQPPKLLIYYASTLASGVSSRFKGSGSGTQFTLTISGVESVDAATYYCQQGYSSSNVDNVFGGGTEVVVK
Regarding B1, the RTDAR0 in data set [1] (analytical HIC retention time of DAR0 species) is given as 6.5. For the same molecule, the RTDAR2 in data set [1] (analytical HIC retention time of DAR2 species) is recorded as 10.3. Moreover, the “RTDAR2 − RTDAR0” value in data set [1] (increase in HIC retention time upon conjugation of two linker drugs) was found to be 3.8.
